From US20240133870A1, “COMBINED TREATMENT FOR CANCER” (Yeda Research and Development Co. Ltd., priority 2021, published 2024) come the findings set out here.

Holding throughout (assay type): cell-based, human
Series [1] relates to HT-29 orthotopic xenograft colorectal tumors. The series is described as follows: EVOC of orthotopic colon tumors, pERK and H&E/BrDu. Conditions: lapatinib 4 μM combined with BRAFi (vemurafenib 4 μM). From the text:
500-700 μmm^3 tumors were resected, sliced, and cultured ex-vivo. Following 4 days of drug treatment, slices were fixed and embedded in paraffin blocks. FFPE slices were stained by H&E, and the percentage of viable cancer cells was morphologically assessed on H&E stained sections by a pathologist as the ratio between viable cancer cell area and total cancer area (viable cancer cells plus necrotic cancer cells). […] Each black dot in a given treatment condition represents a different tumor. P-values were calculated by two-sided t-test. *** P<0.001 ** P<0.01. Error bars represent standard error. […] Names of the six secreted factors with the highest rScore are shown. Factors related to TNF pathways are marked in gray. Results represent the average of at least two experiments. […] Cohort size pre-treatment: 5-6, P-values of the difference on the last day of experiment were calculated by one-sided Mann-Whitney test. * P<0.05. […] Viability percentage was calculated based on the entire field of view per treatment combination. […] FFPE slices were stained by pERK and pERK activity was assessed by a pathologist. […]
For the ex-vivo experiments EVOCs from immunocompromised mice bearing human tumors were generated, as further described hereinbelow. For the in-vivo validation experiments, mice bearing subcutaneous tumors were used; and response was measured by evaluating tumor volume. […]

Another series deals with H1975 xenografts. Nature of the series: EVOC viability. Conditions: afatinib 3-4 μM.
Series [2] deals with BRAF (V600E) melanoma cell lines. The series is described as follows: High-throughput secretome screen of GFP-labeled cells (rScore, bScore, ranks). The note with it: G361 and SK-MEL-5; PLX4720 2 μM, PD184352 1 μM, EMAPII 50 ng/ml. As to the method:
Cell lines—All cell lines (Table 1 hereinbelow) were cultured in DMEM supplemented with 100 units/ml Penicillin and Streptomycin, 2 μmM Glutamine, 1 μmM Pyruvate and 10% FCS, and maintained in a humidified incubator at 37° C. and 5% CO2. Cells were routinely tested for Mycoplasma contamination by PCR. To generate stable cell lines constitutively expressing GFP, cells were infected with lentivirus bearing plasmid pLEX_TRC206 and sorted by FACS to enrich for GFP positive population. For the in-vitro experiments, human cancer cell lines which constitutively expressed GFP were treated with various cytotoxic and targeted drugs (see Table 1 hereinbelow); and the effect of different secreted factors (Table 2 hereinbelow) on the innate resistance to a drug based on the cells' GFP level was determined.
High throughput in-vitro screens—For high-throughput screens or drug dose curves, cells were counted by Vi-Cell XR (Beckman coulter). Cells were seeded on 384 wells plates (Corning, 3712) using the EL406 washer dispenser (BioTek). Liquid handling of medium and drugs was effected by CyBi (WellFlex vario, CyBio). GFP fluorescence of cells was measured at 477/517 nm (excitation/emission) using Cytation3 (BioTek). Due to fluorescence reading bias at plate margins and corners, these margins were discarded for analysis.
High-throughput secretome screens—To screen for the effect of secreted factors on the response of cell lines to different drugs, the following seven-days procedure was performed. On day 0, GFP expressing cells were seeded at 1500-2000 cells per well on 384-wells plates (Corning, 3712), depending on the cell line's proliferation rate. Each plate was seeded with one cell line. At day 1, each plate was treated with the secretome library (Table 2 hereinabove), one well per factor. Immediately afterwards, each plate was treated either with a drug (Table 1 hereinabove) at the EC90 concentration or with DMSO control. The CyBi liquid handler was used to treat each plate with a drug and the secretome library as well as to replace the medium, drug and secreted factors following 3 days of incubation (day 4). Cell fluorescence was read at days 1, 4 and 7 by Cytation3, and for some of the experiments at day 6 as well. Wells of interest were imaged at day 7 using the Operetta (PerkinElmer).
(2) Based on observations, the plate area spanning rows 4-13 and columns 4-21 was hardly affected by plate margins biases. This area is referred to herein as plate core. To control for row specific and column specific biases, plate outliers (Zscore>4 or Zscore<−4) and edges were masked. Next, to capture row and column (col) biases for the i-th row and the j-th column, the bias factor was calculated:
Upon QC completion, 199 experiment plates and 79 control (DMSO) plates were left for further analysis. • 4—Scoring methods-A GFP value for wells without secretome factors was obtained by averaging over the plate internal control wells. Those wells contained the solvents used in the secretome library. pScore: The effect of the secreted factors on proliferation under DMSO was evaluated using pScore (proliferation score). Values were given in percent units.
rScore: The effect of the secreted factors on resistance to anti-cancer drugs was evaluated using rScore (rescue score). rScore was assigned to a given factor under two conditions: • 1. drug effect was >30% (residual drug growth<0.7) • 2. proliferation ratio between factor treated and untreated cells in the presence of drug was higher than one:
rSscore=S−S*residual drug growth
Based on manual inspection of the rScore distribution across the data, the threshold for a potential effect on drug resistance was set to 0.2 (FIGS. 8A-D).
(*) Negative values were considered as zero. […] Groups with less than 4 experiments were discarded, finally resulting in 13 groups of experiments (FIG. 1E). […]

For the next series, the system named is pERK in G361 cell line. Nature of the series: In-cell western blot of pERK. The note with it: G361 cells treated with the BRAF inhibitor (vemurafenib 2 μM and trametinib 1 nM). As to the method: PLX4720—BRAFi, 2 μM; PD184352—MEKi, 1 μM, EMAPII—50 ng/ml. P-value of the difference between GFP(drug)/GFP(no-treatment) and GFP(drug+EMAPII)/GFP(no-treatment), at day 7, was calculated by two-sided t-test. ** p<0.01, *** p<0.001. Average rScore (+/−SE) was calculated from at least four different experiments. […] A total of 69 experiments are shown. […] The effect of FGF2 (10 ng/ml), EMAPII (10 ng/ml) or AIMP1 (10 ng/ml) on G361 μmelanoma cells treated with vemurafenib (2 μM) was measured with or without the FGFR inhibitor PD17307 (0.5 μM). Data represent an average of 4 to 8 experiments. P-value was calculated by two-sided t-test. *** p<0.001. Error bars represent standard error. […] P-values were calculated by two-sided t-test relative to luciferase. * p<0.05, Q-value=0.1. […] P-value was calculated by two-sided t-test. *** p<0.001.
In-cell western blot—To validate that EMAPII mediates its effect on resistance to BRAF inhibition via the FGF receptors (FIG. 2G), the melanoma BRAF mutated cell line G361 was seeded in a 384-wells plate at a concentration of 16,000 cells per well. […] Finally, the plate was scanned with Odyssey (Li-cor) using microplate settings (169 μm, […]), and fluorescence intensity was quantified and normalized to the DRAQ level, and then to no drug control (DMSO).

Experimental for H1975 xenografts: Vehicle—DMSO, FGFRi—AZD4547 2-4 μM, INSRi—linsitinib 2 μM, METi—crizotinib 2-4 μM, EGFRi—afatinib 3-4 μM. Each black dot in a given treatment condition represents a different tumor. P-values were calculated by two-sided t-test. ** P<0.01, * P<0.05. Error bars represent standard error. […] Viability percentage is given per treatment combination. Scale bar represents 50 μm. […] Error bars represent standard error. […] EGFRi—gefitinib 1.6 μM, FGFRi—AZD4547 0.2 μM. The percentage of viable cancer cells was morphologically assessed on H&E stained sections by a pathologist as the ratio between viable cancer cell area and total cancer area (viable cancer cells plus necrotic cancer cells). […] Viability score was calculated based on the entire field of view. […]
Immunohistochemistry of EVOC tissues: To assess response therapy, 4 μm FFPE tissue slices were stained with H&E, or with specific antibodies: anti-pERK (Cell Signaling, #4370) followed by HRP conjugated secondary antibody (anti-Rabbit HRP, ZUC032, ZytoChem) and DAB staining (DAB substrate kit, DAB057, ZytoChem). […] All slides were scanned using the Pannoramic SCAN II (3[sequence]) and analyzed by a pathologist. The percentage of viable cancer cells was morphologically assessed on H&E stained sections by a pathologist as the ratio between viable cancer cell area and total cancer area (viable cancer cells plus necrotic cancer cells).

Regarding `CS(=O)(=O)CCNCc1ccc(-c2ccc3ncnc(Nc4ccc(OCc5cccc(F)c5)c(Cl)c4)c3c2)o1` [lapatinib], the “downstream pERK signaling” value in series [1] was “completely blocked pERK signaling”.
As for `CN(C)C/C=C/C(=O)Nc1cc2c(Nc3ccc(F)c(Cl)c3)ncnc2cc1O[C@H]1CCOC1` [afatinib], the “decrease of viability of cancer cells, on average” value with H1975 xenografts was determined as 28%.

B1: EMAPII: endothelial-monocyte activating polypeptide II, C-terminus variant of AIMP1 (protein, UniProt Q12904 147-312, looked up)
Endothelial …: SKPIDVSRLDLRIGCIITARKHPDADSLYVEEVDVGEIAPRTVVSGLVNHVPLEQMQNRMVILLCNLKPAKMRGVLSQAMVMCASSPEKIEILAPPNGSVPGDRITFDAFPGEPDKELNPKKKIWEQIQPDLHTNDECVATYKGVPFEVKGKGVCRAQTMSNSGIK
modifications: Endothelial monocyte-activating polypeptide 2
Turning to B1, the “effect on sensitivity to BRAF/MEK inhibition” value in series [2] is “conferred resistance to BRAF and MEK inhibition”. Besides, the pERK reactivation entry in the series with pERK in G361 cell line is on record as “partially reactivate pERK”.
